Read-outs that look alike come from different tables or passages of the source.
How the values were obtained:
[1] = tested on: peritoneal pain caused by phenylbenzoquinone (PBQ); assay: Peripheral analgesic activity (phenylbenzoquinone peritoneal pain); format: in vivo, mice; conditions: Mus musculus, 0.5 h, read-out: Peripheral analgesic activity ED50
Excerpt: E-Peripheral analgesic activity
A peritoneal pain is caused in mice by the intraperitoneal injection of phenylbenzoquinone (PBQ). The test tries to measure the decrease in the pain syndrome, characterized by an abdominal twisting movement, which is caused by injecting the test product thirty minutes before the administration of PBQ.

[2] = tested on: histamine; assay: Bronchospasm by inhalation of a histamine solution; format: in vivo, guinea-pigs; conditions: for ED50: Cavia porcellus, 0.5 h, read-out: Bronchospasm ED50
Description: F-Bronchospasm by inhalation of a histamine solution
Guinea-pigs are placed in a closed chamber into which histamine is introduced as an aerosol, and only those which show very distinct signs of asphyxia within four minutes are selected.
The substance to be studied is administered to groups of guinea-pigs thirty minutes before a further period in the chamber in order to check the resistance to histamine. A guinea-pig is considered to be protected if it resists the histamine aerosol for ten minutes without showing signs of asphyxia.
A 50% effective dose is calculated from the results obtained.

[3] = in vivo; conditions: mouse, ip
[4] = tested on: histamine; assay: animal or person; format: in vivo, guinea-pigs; conditions: Cavia porcellus, 0.5 h, read-out: Histaminic shock ED50
[5] = tested on: sleep induced by pentobarbital; assay: animal or person; format: in vivo, mice; conditions: ip
[6] = tested on: mice; assay: Exploration behavior (hole-board); format: in vivo; conditions: Mus musculus, ip, 0.5 h, read-out: Exploration behavior ED50
Excerpt: Thirty minutes after the intraperitoneal administration of the derivatives according to the invention, each mouse is placed on an automated hole-board for five minutes and the number of holes explored is noted every minute.
(§1) A 50% effective dose can be calculated from the results obtained.

[7] = tested on: mice; assay: Muscle-relaxing action (traction test); format: in vivo; conditions: Mus musculus, ip, read-out: Muscle-relaxing action - Traction test ED50
Excerpt: C-Muscle-relaxing action (traction test)
This test assesses the presence or absence of redressments in a mouse brought up to a horizontal wire with its front paws.
The number of mice which are unable to grip the wire with one of their back paws within five seconds are noted.
as §1

[8] = tested on: mice; assay: Study of the spontaneous motility (motor activity), photoelectric actimeter; format: in vivo; conditions: mouse, at 25 mg.kg^-1 i.p.

SMILES | ED50 ([1]; ip) | ED50 ([2]; po) | LD50 [3] | ED50 ([4]; po) | ED50 ([2]; ip) | ED50 ([4]; ip) | further results
O=C1c2ccccc2C(=O)N1CCCCN1CCN(CCOC(c2ccccc2)c2ccccc2)CC1 [Derivative 19] | 1.56 mg/kg | 5.34 mg/kg | 133 mg/kg | 2.2 mg/kg |  |  | 
CS(=O)(=O)O.CS(=O)(=O)O.O=C1c2ccccc2C(=O)N1CCN1CCN(CCOC(c2ccccc2)c2ccccc2)CC1 [Derivative 2, 1-[2-(Benzhydryloxy)ethyl]-4-[2-(phthalimido)-ethyl]piperazine dimethanesulfonate] | 3.12 mg/kg |  | 211 mg/kg |  | 3.67 mg/kg | 2.03 mg/kg | 
O=C(NCCN1CCN(CCOC(c2ccccc2)c2ccccc2)CC1)c1ccccc1[N+](=O)[O-] [Derivative 49] |  | 3.12 mg/kg | 131 mg/kg |  |  |  | ED50 ([1]; sc): 2.6 mg/kg; Interaction with pentobarbital ([5]; mouse, in vivo): no interaction
O=c1n(CCN2CCN(CCOC(c3ccccc3)c3ccccc3)CC2)c2ccccc2n1Cc1ccccc1 [Derivative 32] |  |  | 400 mg/kg | 2.3 mg/kg |  |  | Bronchospasm ([2]; guinea pig, in vivo, po): 33%
CC(C)(C)c1ccc(C(O)CCCN2CCC(C(O)(c3ccccc3)c3ccccc3)CC2)cc1 (stereo not shown) [Terfenadine, reference compound] | 3.1 mg/kg |  | 100 mg/kg |  |  |  | ED50 [6]: 37 mg/kg; ED50 ([5]; Mus musculus, read-out: Interaction with pentobarbital ED50): 25 mg/kg; ED50 [7]: 31 mg/kg; Motor activity [8]: Significant decrease
O=C1CCC(=O)N1CCN1CCN(CCOC(c2ccccc2)c2ccccc2)CC1 [Derivative 22] |  |  | 146 mg/kg |  | 3.96 mg/kg | 3.25 mg/kg | ED50 ([1]; po): 35 mg/kg

Reference: patent publication US4908365A, “Benzhydryloxyethylpiperazine derivatives, processes for their preparation and pharmaceutical compositions in which they are present” (priority 1986, dated 1990)
